Measured values as given in PubChem BioAssay (NCI).
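1) Cells in 96-well plates. 2) Compound, 48 h, 5 concentrations. 3) Linear interpolation between surrounding doses. 4) Unreached endpoint = highest concentration. GI50: concentration for 50% inhibition of growth. TGI denotes the concentration required for complete inhibition of growth.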

Tests used:
Test in all cases: NCI anticancer screen, dose series, 48 h
[1] = test system: 786-0 renal
[2] = test system: A498 renal
[3] = test system: A549 NSCLC
[4] = test system: ACHN renal
[5] = test system: BT-549 breast
[6] = test system: CAKI-1 renal
[7] = test system: CCRF-CEM leukemia
[8] = test system: COLO 205 colon
[9] = test system: DU-145 prostate
[10] = test system: EKVX NSCLC
[11] = test system: HCC-2998 colon
[12] = test system: HCT-116 colon
[13] = test system: HCT-15 colon
[14] = test system: HL-60(TB) leukemia
[15] = test system: HOP-62 NSCLC
[16] = test system: HOP-92 NSCLC
[17] = test system: HS 578T breast
[18] = test system: HT29 colon
[19] = test system: IGROV1 ovarian
[20] = test system: K-562 leukemia
[21] = test system: KM12 colon
[22] = test system: LOX IMVI melanoma
[23] = test system: M14 melanoma
[24] = test system: MALME-3M melanoma
[25] = test system: MCF7 breast
[26] = test system: MDA-MB-231 breast
[27] = test system: MDA-MB-435
[28] = test system: MOLT-4 leukemia
[29] = test system: NCI-H226 lung
[30] = test system: NCI-H23 lung
[31] = test system: NCI-H460 lung
[32] = test system: NCI-H522 lung
[33] = test system: NCI/ADR-RES ovarian
[34] = test system: OVCAR-3 ovarian
[35] = test system: OVCAR-4 ovarian
[36] = test system: OVCAR-5 ovarian
[37] = test system: OVCAR-8 ovarian
[38] = test system: PC-3 prostate
[39] = test system: RPMI-8226 leukemia
[40] = test system: RXF 393 renal
[41] = test system: SF-268 CNS
[42] = test system: SF-295 CNS
[43] = test system: SF-539 CNS
[44] = test system: SK-MEL-2 melanoma
[45] = test system: SK-MEL-28 melanoma
[46] = test system: SK-MEL-5 melanoma
[47] = test system: SK-OV-3 ovarian
[48] = test system: SN12C renal
[49] = test system: SNB-19 CNS
[50] = test system: SNB-75 CNS
[51] = test system: SR leukemia
[52] = test system: SW-620 colon
[53] = test system: T-47D breast
[54] = test system: TK-10 renal
[55] = test system: U251 CNS
[56] = test system: UACC-257 melanoma
[57] = test system: UACC-62 melanoma
[58] = test system: UO-31 renal

`CC(=O)Nc1cccc(C#Cc2cncnc2Nc2ccc(OCc3cccc(F)c3)c(Cl)c2)n1` was tested. Which GI50 [1] did it give?
Its GI50 is > 22.5 µM.

And the TGI [1]?
Its TGI is > 25 µM.

What about the GI50 [2] of the same compound?
The GI50 was 1220 nM.

What about the TGI [2] of the same compound?
The TGI was > 25 µM.

What about the GI50 [3] of the same compound?
Its GI50 is 6.81 µM.

What about the TGI [3] of the same compound?
Its TGI is > 25 µM.

And the GI50 [4]?
Its GI50 is 2870 nM.

And the TGI [4]?
The TGI was > 25 µM.

What about the GI50 [5] of the same compound?
Its GI50 is > 25 µM.

And the TGI [5]?
The TGI was > 25 µM.

And the GI50 [6]?
The GI50 was 2280 nM.

What about the TGI [6] of the same compound?
Its TGI is > 25 µM.

And the GI50 [7]?
Its GI50 is > 25 µM.

What about the TGI [7] of the same compound?
The TGI was > 25 µM.

And the GI50 [8]?
Its GI50 is > 22.2 µM.

What about the TGI [8] of the same compound?
Its TGI is > 25 µM.

And the GI50 [9]?
The GI50 was 8.62 µM.

And the TGI [9]?
The TGI was > 25 µM.

And the GI50 [10]?
The GI50 was 475 nM.

What about the TGI [10] of the same compound?
The TGI was > 25 µM.

And the GI50 [11]?
Its GI50 is > 25 µM.

What about the TGI [11] of the same compound?
The TGI was > 25 µM.

And the GI50 [12]?
The GI50 was 11.6 µM.

And the TGI [12]?
The TGI was > 25 µM.

And the GI50 [13]?
The GI50 was > 25 µM.

What about the TGI [13] of the same compound?
Its TGI is > 25 µM.

What about the GI50 [14] of the same compound?
Its GI50 is > 25 µM.

What about the TGI [14] of the same compound?
The TGI was > 25 µM.

And the GI50 [15]?
Its GI50 is 10.3 µM.

And the TGI [15]?
Its TGI is > 25 µM.

What about the GI50 [16] of the same compound?
The GI50 was 3.61 µM.

And the TGI [16]?
Its TGI is 18.2 µM.

What about the GI50 [17] of the same compound?
Its GI50 is 24.9 µM.

And the TGI [17]?
The TGI was > 25 µM.

What about the GI50 [18] of the same compound?
Its GI50 is 17.6 µM.

And the TGI [18]?
The TGI was > 25 µM.

What about the GI50 [19] of the same compound?
The GI50 was 4.2 µM.

What about the TGI [19] of the same compound?
The TGI was > 25 µM.

What about the GI50 [20] of the same compound?
The GI50 was > 25 µM.

What about the TGI [20] of the same compound?
The TGI was > 25 µM.

What about the GI50 [21] of the same compound?
Its GI50 is > 25 µM.

And the TGI [21]?
Its TGI is > 25 µM.

And the GI50 [22]?
The GI50 was > 18.5 µM.

And the TGI [22]?
Its TGI is > 25 µM.

What about the GI50 [23] of the same compound?
The GI50 was 16.1 µM.

And the TGI [23]?
The TGI was > 25 µM.

What about the GI50 [24] of the same compound?
The GI50 was 9.55 µM.

And the TGI [24]?
The TGI was > 25 µM.

What about the GI50 [25] of the same compound?
Its GI50 is > 25 µM.

And the TGI [25]?
Its TGI is > 25 µM.

What about the GI50 [26] of the same compound?
The GI50 was 6.04 µM.

And the TGI [26]?
The TGI was > 25 µM.

And the GI50 [27]?
Its GI50 is > 20.4 µM.

And the TGI [27]?
Its TGI is > 25 µM.

And the GI50 [28]?
Its GI50 is > 25 µM.

What about the TGI [28] of the same compound?
The TGI was > 25 µM.

What about the GI50 [29] of the same compound?
The GI50 was > 17.8 µM.

And the TGI [29]?
The TGI was > 25 µM.

What about the GI50 [30] of the same compound?
The GI50 was > 25 µM.

What about the TGI [30] of the same compound?
Its TGI is > 25 µM.

What about the GI50 [31] of the same compound?
The GI50 was 11.9 µM.

What about the TGI [31] of the same compound?
Its TGI is > 25 µM.

And the GI50 [32]?
The GI50 was 8.25 µM.

What about the TGI [32] of the same compound?
The TGI was > 25 µM.

And the GI50 [33]?
The GI50 was 20.7 µM.

And the TGI [33]?
Its TGI is > 25 µM.

And the GI50 [34]?
Its GI50 is > 21.6 µM.

And the TGI [34]?
Its TGI is > 25 µM.

And the GI50 [35]?
Its GI50 is > 22.7 µM.

What about the TGI [35] of the same compound?
The TGI was > 25 µM.

And the GI50 [36]?
Its GI50 is > 23.4 µM.

And the TGI [36]?
Its TGI is > 25 µM.

What about the GI50 [37] of the same compound?
The GI50 was 15.4 µM.

And the TGI [37]?
Its TGI is > 25 µM.

And the GI50 [38]?
The GI50 was 9.4 µM.

What about the TGI [38] of the same compound?
The TGI was > 25 µM.

What about the GI50 [39] of the same compound?
Its GI50 is > 25 µM.

And the TGI [39]?
Its TGI is > 25 µM.

And the GI50 [40]?
The GI50 was 20.8 µM.

And the TGI [40]?
The TGI was > 25 µM.

What about the GI50 [41] of the same compound?
Its GI50 is > 18.8 µM.

What about the TGI [41] of the same compound?
Its TGI is > 25 µM.

And the GI50 [42]?
The GI50 was 13.7 µM.

And the TGI [42]?
Its TGI is > 25 µM.

And the GI50 [43]?
Its GI50 is > 23.3 µM.

What about the TGI [43] of the same compound?
The TGI was > 25 µM.

And the GI50 [44]?
The GI50 was 10.4 µM.

What about the TGI [44] of the same compound?
Its TGI is > 25 µM.

And the GI50 [45]?
Its GI50 is 14.8 µM.

And the TGI [45]?
Its TGI is > 25 µM.

What about the GI50 [46] of the same compound?
Its GI50 is > 18.8 µM.

What about the TGI [46] of the same compound?
Its TGI is > 25 µM.

And the GI50 [47]?
The GI50 was 1060 nM.

What about the TGI [47] of the same compound?
Its TGI is > 25 µM.

And the GI50 [48]?
The GI50 was > 25 µM.

And the TGI [48]?
The TGI was > 25 µM.

What about the GI50 [49] of the same compound?
The GI50 was > 21.7 µM.

And the TGI [49]?
The TGI was > 25 µM.

What about the GI50 [50] of the same compound?
The GI50 was 11.9 µM.

And the TGI [50]?
Its TGI is > 25 µM.

And the GI50 [51]?
The GI50 was > 25 µM.

What about the TGI [51] of the same compound?
Its TGI is > 25 µM.

What about the GI50 [52] of the same compound?
The GI50 was 23.1 µM.

And the TGI [52]?
Its TGI is > 25 µM.

What about the GI50 [53] of the same compound?
The GI50 was 2570 nM.

And the TGI [53]?
Its TGI is > 25 µM.

And the GI50 [54]?
The GI50 was 412 nM.

What about the TGI [54] of the same compound?
Its TGI is > 17.6 µM.

What about the GI50 [55] of the same compound?
Its GI50 is 7.14 µM.

What about the TGI [55] of the same compound?
Its TGI is > 23.4 µM.

And the GI50 [56]?
Its GI50 is > 21.5 µM.

What about the TGI [56] of the same compound?
The TGI was > 25 µM.

And the GI50 [57]?
The GI50 was 24.4 µM.

What about the TGI [57] of the same compound?
Its TGI is > 25 µM.

And the GI50 [58]?
Its GI50 is 22.5 µM.

What about the TGI [58] of the same compound?
The TGI was > 25 µM.
